# Test system: HIV (HTLV-III B strain)
# Assay: HIV replication inhibition assay (MTT, MT-4 cells)
# Format: cell-based
# Settings: 4 days culture, concentration at which cell cytotoxicity by virus is inhibited 50%
# Description: HIV (HTLV-III B strain) persistent infected human T cell strain Molt-4 clone 8 was cultured in 10% Fetal Bovine Serum-containing RPMI-1640 medium and the supernatant was filtrated, then the virus titer was measured and the solution was stored at −80° C. Each anti-human immunodeficiency virus active substance was diluted with the above cultured medium to the designated concentration, which was dispensed into 96 well micro plate by 50 μL. Next, a MT-4 cell suspended liquid was dispensed by 100 μL (2.5×10^4 cells), then the above HIV-containing supernatant diluted with the above cultured medium was added thereto by 50 μL (60 pfu (plaque forming unit)).
# The obtained mixture was cultured at 37° C. in CO2 incubator for four days, then 3-(4,5-dimehylthiazole-2-yl)-2,5-diphenyltetrazolynium bromide (MTT) 5 mg/mL in PBS was added to each well by 30 μL, followed by 1 hr-cultivation. In this step, as formazan was precipitated by reduction of MTT in living cells, the cell supernatant was removed from all well by 150 μL, then a 150 μL of solution (10% Triton X-100 and […]) was added thereto, followed by shaking with a plate mixer, to elute formazan. The formazan was measured with a microreader at OD: 560 nm and 690 nm (wavelength) and the result was compared with the reference. EC50 means the compound concentration at which cell cytotoxicity by virus is inhibited 50%.
row,Structure (SMILES),EC50 [nM]
1,Cc1c(-c2c([C@H](OC(C)(C)C)C(=O)O)c(C)c3nc(O)c4ccccc4c3c2C)ccc2c1CCCO2 [Compound 8],62

# Same assay, conditions: Human immunodeficiency virus 1, MT4, 96 h, 4 days culture, concentration at which cell cytotoxicity by virus is inhibited 50%
row,Structure (SMILES),EC50 [nM]
1,Cc1ccc(-c2c(C)c3c(c(C)c2[C@H](OC(C)(C)C)C(=O)O)N(S(C)(=O)=O)Cc2cccc(Cl)c2-3)cc1 [Compound 302],28.1
2,Cc1ccc(-c2c(C)c3c(c(C)c2[C@H](OC(C)(C)C)C(=O)O)N(S(C)(=O)=O)Cc2c(F)ccc(F)c2-3)c(F)c1 [Compound 304],5.2
3,Cc1c(-c2c(C)c3c(c(C)c2[C@H](OC(C)(C)C)C(=O)O)N(S(C)(=O)=O)Cc2ccccc2-3)ccc2c1NCCO2 [Compound 300],< 7.8
4,Cc1c(-c2ccc3cccnc3c2C)c([C@H](OC(C)(C)C)C(=O)O)c(C)c2c1-c1c(F)ccc(F)c1CN2S(C)(=O)=O [Compound 311],28
5,Cc1c([C@H](OC(C)(C)C)C(=O)O)c(-c2ccc3c(c2)CCCO3)c(C)c2c1ncc1ccsc12 [Compound 17],59
6,Cc1c2c3c(c(C(OC(C)(C)C)C(=O)O)c1-c1ccc4c(c1)CCCO4)CCCN3S(=O)(=O)N(Cc1ccccc1)C2 (stereo not drawn) [Compound 79],15

# Same assay, conditions: Human immunodeficiency virus 1, MT4, 96 h, Table A-2, four days
row,Structure (SMILES),EC50 [nM]
1,Cc1ccc(-c2c([C@H](OC(C)(C)C)C(=O)O)c(C)c3nc(O)c4cc(C)ccc4c3c2C)cc1 [Compound 96],32
2,Cc1ccc(-c2c(C)c3c(c(C)c2[C@H](OC(C)(C)C)C(=O)O)NS(=O)(=O)N(C2CCCC2)CC3)cc1 [Compound 129],7.7
3,Cc1ccc(-c2c(C)c3c(c(C)c2[C@H](OC(C)(C)C)C(=O)O)NS(=O)(=O)N(Cc2ccc(F)cc2)CC3)cc1 [Compound 133],4.8
4,Cc1ccc(-c2c(C)c3c(c(C)c2[C@H](OC(C)(C)C)C(=O)O)NS(=O)(=O)/C=C/CCCCO3)cc1 [Compound 88],21
5,Cc1ccc(-c2c(C)c3c(c(C)c2[C@H](OC(C)(C)C)C(=O)O)NS(=O)(=O)Cc2cccc(C)c2-3)cc1 [Compound 125],39

# Other lines, results leading:
row,EC50 [nM],Structure (SMILES)
1,12,Cc1ccc(-c2c(C)c3c(c(C)c2[C@H](OC(C)(C)C)C(=O)O)N(S(C)(=O)=O)Cc2cc(F)c(F)cc2-3)cc1 [Compound 108]
2,22,Cc1ccc(-c2c([C@H](OC(C)(C)C)C(=O)O)c(C)c3nc(O)c4cc(C(F)(F)F)ccc4c3c2C)cc1 [Compound 98]

# Same assay, conditions: Human immunodeficiency virus 1, MT4, 96 h, Table A-3, four days
row,Structure (SMILES),EC50 [nM]
1,Cc1ccc(-c2c(C)c3c(c(C)c2[C@H](OC(C)(C)C)C(=O)O)NC(=O)C2(CCC(F)(F)CC2)N3)cc1 [Compound 157],4.3
2,Cc1ccc(-c2c(C)c3c4c(c2C(OC(C)(C)C)C(=O)O)CCCN4S(=O)(=O)N(Cc2ccc(F)cc2)C3)cc1 (stereo not drawn) [Compound 184],53
3,Cc1ccc(-c2c(C)c3c(c(C)c2[C@H](OC(C)(C)C)C(=O)O)NC(=O)N(Cc2ccc(F)cc2)CC3)cc1 [Compound 177],34
4,Cc1ccc(-c2c(C)c3c(c(C)c2[C@H](OC(C)(C)C)C(=O)O)NC(=O)N(C2CCCC2)CC3)cc1 [Compound 149],23

# Continued, values first:
row,EC50 [nM],Structure (SMILES)
1,8.5,Cc1ccc(-c2c(C)c3c(c(C)c2[C@H](OC(C)(C)C)C(=O)O)N(S(C)(=O)=O)Cc2cc(F)ccc2-3)cc1 [Compound 167]
2,21,Cc1ccc(-c2c(C)c3c(c(C)c2[C@H](OC(C)(C)C)C(=O)O)N(S(C)(=O)=O)Cc2cscc2-3)cc1 [Compound 183]
3,42,Cc1ccc(-c2c(C)c3c(c(C)c2[C@H](OC(C)(C)C)C(=O)O)N(S(C)(=O)=O)Cc2c(F)ccc(C)c2-3)cc1 [Compound 172]
4,24,COc1ccc2c(c1)-c1c(C)c(-c3ccc(C)cc3)c([C@H](OC(C)(C)C)C(=O)O)c(C)c1N(S(C)(=O)=O)C2 [Compound 168]

# Same assay, conditions: Human immunodeficiency virus 1, MT4, 96 h, Table A-4, four days
row,Structure (SMILES),EC50 [nM]
1,Cc1c(-c2c(C)c3c(c(C)c2[C@H](OC(C)(C)C)C(=O)O)N(S(C)(=O)=O)Cc2c(F)ccc(F)c2-3)ccc2c1CCCO2 [Compound 246],2.3
2,Cc1ccc(-c2c([C@H](OC(C)(C)C)C(=O)O)c(C)c3nc(O)c4ccc(F)cc4c3c2C)cc1 [Compound 230],94
3,Cc1c([C@H](OC(C)(C)C)C(=O)O)c(-c2ccc(Cl)cc2)c(C)c2c1nc(O)c1cc(F)cnc12 [Compound 238],31
4,Cc1c(-c2c([C@H](OC(C)(C)C)C(=O)O)c(C)c3nc(O)c4cc(F)cnc4c3c2C)ccc2c1NCCO2 [Compound 237],12
5,COc1ccc2c(c1)c(O)nc1c(C)c([C@H](OC(C)(C)C)C(=O)O)c(-c3ccc(C)cc3)c(C)c12 [Compound 223],34
6,Cc1c(-c2c([C@H](OC(C)(C)C)C(=O)O)c(C)c3nc(O)c4cc(F)cnc4c3c2C)ccc2c1CCCO2 [Compound 218],6.4

# Now from value to molecule:
row,EC50 [nM],Structure (SMILES)
1,38,Cc1ccc(-c2c(C)c3c(c(C)c2[C@H](OC(C)(C)C)C(=O)O)N(S(C)(=O)=O)Cc2ccncc2-3)cc1 [Compound 210]
2,1.9,Cc1ccc(-c2c(C)c3c(c(C)c2[C@H](OC(C)(C)C)C(=O)O)N(S(C)(=O)=O)Cc2cc(F)cc(F)c2-3)cc1 [Compound 212]
3,19,Cc1ccc(-c2c(C)c3c(c(C)c2[C@H](OC(C)(C)C)C(=O)O)N(S(C)(=O)=O)Cc2c(F)cc(F)cc2-3)cc1 [Compound 228]

# Same assay, conditions: Human immunodeficiency virus 1, MT4, 96 h, Table A-5, four days
row,EC50 [nM],Structure (SMILES)
1,15,COc1ccc(-c2c(C)c3c(c(C)c2[C@H](OC(C)(C)C)C(=O)O)N(S(C)(=O)=O)Cc2cccc(F)c2-3)c(C)c1 [Compound 275]
2,19,Cc1c(-c2ccc(F)cc2)c([C@H](OC(C)(C)C)C(=O)O)c(C)c2c1-c1c(F)cccc1CN2S(C)(=O)=O [Compound 264]
3,11,Cc1c(-c2ccc(Cl)cc2)c([C@H](OC(C)(C)C)C(=O)O)c(C)c2c1-c1c(F)cccc1CN2S(C)(=O)=O [Compound 265]
4,7.9,Cc1c(-c2ccc3c(c2)CCCO3)c([C@H](OC(C)(C)C)C(=O)O)c(C)c2c1-c1c(F)cccc1CN2S(C)(=O)=O [Compound 266]
5,33,Cc1ccc(-c2c(C)c3c(c(C)c2[C@H](OC(C)(C)C)C(=O)O)N(S(C)(=O)=O)[C@@H](C)c2ccccc2-3)cc1 [Compound 287]
6,11,Cc1ccc(-c2c(C)c3c(c(C)c2[C@H](OC(C)(C)C)C(=O)O)N(S(C)(=O)=O)Cc2cc(C#N)ccc2-3)cc1 [Compound 279]

# Same assay, conditions: Human immunodeficiency virus 1, MT4, 96 h, Table A-7, four days
row,Structure (SMILES),EC50 [nM]
1,Cc1c(-c2c(C)c3c(c(C)c2[C@H](OC(C)(C)C)C(=O)O)N(C(N)=O)Cc2c(F)ccc(F)c2-3)ccc2c1NCCO2 [Compound 358],91
2,Cc1c(-c2c(C)c3c(c(C)c2[C@H](OC(C)(C)C)C(=O)O)N(S(C)(=O)=O)Cc2cccc(F)c2-3)ccc2c1NCCC2 [Compound 359],5.4
3,Cc1c(-c2c(C)c3c(c(C)c2[C@H](OC(C)(C)C)C(=O)O)N(S(C)(=O)=O)Cc2cccc(F)c2-3)ccc2c1OCCO2 [Compound 360],4.4

# Now from value to molecule:
row,EC50 [nM],Structure (SMILES)
1,22,Cc1c(-c2ccc3c(c2)OCCO3)c([C@H](OC(C)(C)C)C(=O)O)c(C)c2c1-c1c(F)cccc1CN2S(C)(=O)=O [Compound 336]
2,19,Cc1ccc(-c2c(C)c3c(c(C)c2[C@H](OC(C)(C)C)C(=O)O)N(S(N)(=O)=O)Cc2c(F)ccc(F)c2-3)cc1 [Compound 333]
3,53,Cc1ccc(-c2c(C)c3c(c(C)c2[C@H](OC(C)(C)C)C(=O)O)N(S(C)(=O)=O)Cc2cc(N)ncc2-3)c(C)c1 [Compound 330]

# Same assay, conditions: Human immunodeficiency virus 1, MT4, 96 h, Table A-8 (continuation of Tables A-1 to A-9), four days
row,EC50 [nM],Structure (SMILES)
1,63,COc1ccnc2c1CN(S(C)(=O)=O)c1c(C)c([C@H](OC(C)(C)C)C(=O)O)c(-c3ccc(C)cc3)c(C)c1-2 [Compound 374]
2,29,Cc1ccc(-c2c(C)c3c(c(C)c2[C@H](OC(C)(C)C)C(=O)O)N(S(C)(=O)=O)Cc2nc(C)cc(C)c2-3)cc1 [Compound 388]
3,86,Cc1ccc(-c2c(C)c3c(c(C)c2[C@H](OC(C)(C)C)C(=O)O)N(S(C)(=O)=O)Cc2ccc(N)nc2-3)cc1 [Compound 386]
4,33,Cc1ccc(-c2c(C)c3c(c(C)c2[C@H](OC(C)(C)C)C(=O)O)N(S(C)(=O)=O)Cc2ccc(C(F)(F)F)nc2-3)cc1 [Compound 397]
5,81,Cc1c(-c2c(C)c3c(c(C)c2[C@H](OC(C)(C)C)C(=O)O)N(S(C)(=O)=O)Cc2cccc(F)c2-3)ccc(Cl)c1O [Compound 372]
6,4.6,COc1ccc2c(n1)CN(S(C)(=O)=O)c1c(C)c([C@H](OC(C)(C)C)C(=O)O)c(-c3ccc(C)cc3)c(C)c1-2 [Compound 371]
7,39,Cc1ccc(-c2c(C)c3c(c(C)c2[C@H](OC(C)(C)C)C(=O)O)N(S(C)(=O)=O)Cc2cnc(C(F)(F)F)cc2-3)cc1 [Compound 385]
8,2.2,Cc1ccc(-c2c(C)c3c(c(C)c2[C@H](OC(C)(C)C)C(=O)O)N(S(C)(=O)=O)Cc2cc(N(C)C)cnc2-3)cc1 [Compound 390]

# Same assay, conditions: Human immunodeficiency virus 1, MT4, 96 h, Table A-9, four days
row,EC50 [nM],Structure (SMILES)
1,38,Cc1cnc2c(c1)CN(S(C)(=O)=O)c1c(C)c([C@H](OC(C)(C)C)C(=O)O)c(-c3ccc(Cl)cc3O)c(C)c1-2 [Compound 406]

# Same assay, conditions: Table A-2, four days
row,EC50 [nM],Structure (SMILES)
1,5.1,Cc1ccc(-c2c(C)c3c(c(C)c2[C@H](OC(C)(C)C)C(=O)O)NS(=O)(=O)Cc2ccc(C)cc2-3)cc1 [Compound 120]
2,8.2,Cc1ccc(-c2c(C)c3c(c(C)c2[C@H](OC(C)(C)C)C(=O)O)NS(=O)(=O)Cc2c(F)cccc2-3)cc1 [Compound 124]

# Source: patent US20180362543A1, “HIV REPLICATION INHIBITOR” (Shionogi & Co., Ltd., priority 2013, published 2018)
